Data from the supplement of paper PMC10307832.

Legend:
Experiment in all cases: relative viability (nuclei count vs DMSO), 5 days (fraction); higher = more cells survive
VX-11e + Foretinib = compound: CC1=CN=C(N=C1C2=CNC(=C2)C(=O)N[C@H](CO)C3=CC(=CC=C3)Cl)NC4=C(C=C(C=C4)F)Cl [VX-11e] + COc1cc2c(Oc3ccc(NC(=O)C4(C(=O)Nc5ccc(F)cc5)CC4)cc3F)ccnc2cc1OCCCN1CCOCC1 [Foretinib] (partner 0.25 µM)
Procedure, shortened: (§1)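 Each reported value is a median over duplicate plates. It expresses relative viability: treated-well nuclei count divided by vehicle-well nuclei count. Lung cancer cell lines in 1536-well plates were dosed by pin tool a day after seeding, alone with one drug or with a fixed anchor-drug dose plus five library-drug doses (not always all listed) in √10 steps, and nuclei were counted after 5 days.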

VX-11e + Tozasertib = compound: CC1=CN=C(N=C1C2=CNC(=C2)C(=O)N[C@H](CO)C3=CC(=CC=C3)Cl)NC4=C(C=C(C=C4)F)Cl [VX-11e] + Cc1cc(Nc2cc(N3CCN(C)CC3)nc(Sc3ccc(NC(=O)C4CC4)cc3)n2)n[nH]1 [Tozasertib] (partner 0.1 µM)
Procedure, shortened: as §1

VX-11e + Luminespib = compound: CC1=CN=C(N=C1C2=CNC(=C2)C(=O)N[C@H](CO)C3=CC(=CC=C3)Cl)NC4=C(C=C(C=C4)F)Cl [VX-11e] + CCNC(=O)c1noc(-c2cc(C(C)C)c(O)cc2O)c1-c1ccc(CN2CCOCC2)cc1 [Luminespib] (partner 0.01 µM)
Procedure, shortened: as §1

VX-11e + AZD7762 = compound: CC1=CN=C(N=C1C2=CNC(=C2)C(=O)N[C@H](CO)C3=CC(=CC=C3)Cl)NC4=C(C=C(C=C4)F)Cl [VX-11e] + NC(=O)Nc1cc(-c2cccc(F)c2)sc1C(=O)N[C@H]1CCCNC1 [AZD7762] (partner 0.2 µM)
Procedure, shortened: as §1

Cell Line | relative viability (VX-11e + Foretinib; first compound 0.04 µM) | relative viability (VX-11e + Foretinib; first compound 0.1265 µM) | relative viability (VX-11e + Foretinib; first compound 0.4 µM) | relative viability (VX-11e + Foretinib; first compound 1.265 µM) | relative viability (VX-11e + Foretinib; first compound 4 µM) | relative viability (VX-11e + Tozasertib; first compound 0.04 µM) | relative viability (VX-11e + Tozasertib; first compound 0.1265 µM) | relative viability (VX-11e + Tozasertib; first compound 0.4 µM) | relative viability (VX-11e + Tozasertib; first compound 1.265 µM) | relative viability (VX-11e + Tozasertib; first compound 4 µM) | relative viability (VX-11e + Luminespib; first compound 0.04 µM) | relative viability (VX-11e + Luminespib; first compound 0.1265 µM) | relative viability (VX-11e + Luminespib; first compound 0.4 µM) | relative viability (VX-11e + Luminespib; first compound 1.265 µM) | relative viability (VX-11e + Luminespib; first compound 4 µM) | relative viability (VX-11e + AZD7762; first compound 0.04 µM) | relative viability (VX-11e + AZD7762; first compound 0.1265 µM) | relative viability (VX-11e + AZD7762; first compound 0.4 µM) | relative viability (VX-11e + AZD7762; first compound 1.265 µM) | relative viability (VX-11e + AZD7762; first compound 4 µM)
NCI-H2347 | 0.761 | 0.877 | 0.46 | 0.67 | 0.652 | 0.646 | 0.599 | 0.508 | 0.449 | 0.276 | 0.293 | 0.548 | 0.323 | 0.269 | 0.366 | 0.834 | 0.722 | 0.551 | 0.501 | 0.375
NCI-H2405 | 1.04 | 1.01 | 1.05 | 1.08 | 0.455 | 0.804 | 0.757 | 0.768 | 0.779 | 0.256 | 0.798 | 0.719 | 0.395 | 0.717 | 0.296 | 0.835 | 0.729 | 0.625 | 0.671 | 0.412
NCI-H3122 | 0.948 | 0.897 | – | 0.851 | 0.487 | 0.452 | 0.413 | – | 0.23 | 0.173 | 0.0662 | 0.0869 | – | 0.0911 | 0.0987 | 1.13 | 1.13 | 0.353 | 0.933 | 0.577
PC-3 [JPC-3] | 1.06 | 0.972 | 1.05 | 1.08 | 0.769 | 0.892 | 0.863 | 0.829 | 0.926 | 0.729 | 0.627 | 0.595 | 0.66 | 0.744 | 0.591 | 0.697 | 0.653 | 0.685 | 0.701 | 0.711
PC-14 | 1.08 | 1.05 | 0.981 | 1.07 | 0.708 | 0.66 | 0.469 | 0.395 | 0.331 | 0.278 | 0.199 | 0.173 | – | 0.112 | 0.172 | 0.341 | 0.339 | 0.274 | 0.278 | 0.256
RERF-LC-KJ | 1.01 | 0.886 | 0.901 | 0.856 | 0.813 | 0.529 | 0.452 | 0.564 | 0.457 | 0.29 | 1.32 | 1.06 | 1.05 | 1.21 | 1.11 | 0.572 | 0.876 | 0.498 | 0.903 | 0.839
SW 900 | 0.851 | 0.943 | 0.969 | 0.794 | 0.519 | 0.737 | 0.401 | 0.409 | 0.307 | 0.258 | 0.211 | 0.186 | 0.174 | 0.175 | 0.173 | 0.439 | 0.529 | – | 0.265 | 0.411
